Here are results for one compound from US20130164338A1 (priority 2010, published 2013).

This experiment relates to S. pneumoniae (Serotype 3; ATCC 6303). As to the kind of experiment: S. pneumoniae mouse pneumonia model, nebulized salt formulations. It counts as in vivo, C57BL/6 mice. The settings on record: nebulized 2 h before infection; ~0.72 mg Ca/kg, ampicillin ~3 mg/kg.

Structures are written as SMILES.

With `CC1(C)S[C@@H]2[C@H](NC(=O)[C@H](N)c3ccccc3)C(=O)N2[C@H]1C(=O)O` [ampicillin], the “reduction of bacterial titers in lungs relative to saline control” value worked out at 33 fold.
